# System: diamondback moth (Plutella xylostella)
# Experiment: Insecticidal effect on diamondback moth (Test Example 1)
# Format: in vivo
# Conditions: diamondback moth; judged by the criterion of Test Example 1
# Description: Insecticidal effect on diamondback moth (Plutella xylostella) Adult diamondback moths were released and allowed to oviposit on a Chinese cabbage seedling. […] After air-drying, it was allowed to stand in a room thermostated at 25° C. Six days after the immersion, the hatched insects were counted. The mortality was calculated according to the following equation and the insecticidal effect was judged according to the criterion shown below. The test was carried out with triplicate groups of 10 insects. [table]
row,SMILES,"Insecticidal effect (Test Example 1), judged from mortality"
1,Cc1cc(C(F)(F)C(F)(F)F)ccc1NC(=O)c1c(Cl)cccc1C(=O)N[C@@H](C)CO [compound 1446],A (100)
2,Cc1cc(-c2ccc(OC(F)(F)F)cc2)ccc1NC(=O)c1cccc(I)c1C(=O)NC(C)C [compound 1521],A (100)

# Same assay, conditions: diamondback moth; judged by the mortality criterion of Test Example 1
row,SMILES,"Insecticidal effect, Test Example 1"
1,Cc1cc(SC(C)C)ccc1NC(=O)c1ccccc1C(=O)NC(C)C [compound 68],A (100)
2,CC(C)NC(=O)c1ccc(Cl)cc1C(=O)Nc1ccc(OC(F)(F)F)cc1 [compound 185],A (100)
3,CC(C)NC(=O)c1ccccc1C(=O)Nc1ccc(SC(F)(F)C(F)(F)Br)cc1 [compound 37],A (100)
4,CCc1cc(Cl)ccc1NC(=O)c1c(Br)cccc1C(=O)NC(C)C [compound 310],A (100)

# Same assay, conditions: diamondback moth; mortality judged by criterion of Test Example 1
row,SMILES,"Insecticidal effect, Test Example 1"
1,Cc1cc(OC(F)F)ccc1NC(=O)c1cccc(I)c1C(=O)N(C)Cc1ccccc1 [compound 1440],A (100)
2,Cc1cc(C(F)(F)C(F)(F)F)ccc1NC(=O)c1c(Cl)cccc1C(=O)NC(C)c1ccccc1Cl (stereo not drawn) [compound 1363],A (100)
3,COc1ccc(CNC(=O)c2cccc(Cl)c2C(=O)Nc2ccc(C(F)(F)C(F)(F)F)cc2C)cc1 [compound 1348],A (100)
4,CCCONC(=O)c1cccc(Cl)c1C(=O)Nc1ccc(C(F)(F)C(F)(F)F)cc1C [compound 1328],A (100)
5,Cc1cc(C(F)(F)C(F)(F)F)ccc1NC(=O)c1cccc(Cl)c1C(=O)NCCOc1ccc(Cl)cc1 [compound 1372],A (100)
6,Cc1ccccc1CNC(=O)c1c(I)cccc1C(=O)Nc1ccc(OC(F)F)cc1C [compound 1434],A (100)

# Same assay, conditions: mortality judged according to the criterion shown in Test Example 1
row,SMILES,"Insecticidal effect on diamondback moth (Test Example 1), judged grade"
1,Cc1ccc(Cl)cc1NC(=O)c1cccc([N+](=O)[O-])c1C(=O)NC1CCC1 [compound 854],A (100)
2,CC(C)NC(=O)c1c(C(=O)Nc2cccc(Cl)c2)cccc1[N+](=O)[O-] [compound 587],A (100)
3,CCc1cccc(CC)c1NC(=O)c1cccc([N+](=O)[O-])c1C(=O)NC(C)C [compound 653],A (100)
4,CC(C)NC(=O)c1c(C(=O)Nc2cccc(F)c2F)cccc1[N+](=O)[O-] [compound 638],B (99-90)
5,Cc1cc(OC(F)F)ccc1NC(=O)c1c(F)cccc1C(=O)NC(C)C [compound 559],A (100)
6,CC(C)NC(=O)c1c(C(=O)Nc2cc(Cl)cc(Cl)c2)cccc1[N+](=O)[O-] [compound 637],A (100)
7,CC(C)NC(=O)c1cccc(F)c1C(=O)Nc1ccc(Oc2ccc(C(F)(F)F)cc2Cl)cc1F [compound 902],A (100)
8,CC(C)NC(=O)c1c(F)cccc1C(=O)Nc1ccc(SCC(F)(F)F)cc1 [compound 478],A (100)
9,Cc1ccc(F)cc1NC(=O)c1cccc([N+](=O)[O-])c1C(=O)NCCCl [compound 861],A (100)
10,Cc1ccc(Br)cc1NC(=O)c1cccc([N+](=O)[O-])c1C(=O)NC(C)C [compound 672],A (100)
11,CCc1cc(I)ccc1NC(=O)c1c(I)cccc1C(=O)NC(C)C [compound 920],A (100)
12,Cc1cc(Cl)ccc1NC(=O)c1c(C#N)cccc1C(=O)NC(C)C [compound 745],D (79-50)

# Source: US6362369B1, “Phthalic acid diamide derivatives fluorine-containing aniline compounds as starting material, agricultural and horticultural insecticides, and a method for application of the insecticides” (Nihon Nohyaku Co., Ltd., priority 1997, dated 2002)
